What was measured:
Assay in all cases: EC50 assay: Ba/F3 stable cell proliferation (CCK-8, 72 h)
Format in all cases: cell-based
Ba/F3 stable cells [1] = molecular target: T1, Ba/F3 stable cells (Homo sapiens, UniProt P00533, DUP767-769, cells depend on it); conditions: Ba/F3-EGFR V769-D770insASV cells
T1 construct: EC50 Ba/F3-EGFR V769-D770insASV; other: Ba/F3-EGFR V769-D770insASV cells, 72 h, CCK-8
How it was run: (§1)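 Ba/F3 stable cells were seeded at 4,000 cells/90 μL/well in 96-well plates and held 2 h at 37° C. in 5% CO2, then given 10 μL of serially titrated compound (0.1% DMSO final). After 72 h at 37° C., CCK-8 reagent was added for 4 hours and absorbance read at 450 nm to derive EC50.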

Ba/F3 stable cells [2] = molecular target: T2, Ba/F3 stable cells (Homo sapiens, UniProt P00533, DUP768-770, cells depend on it); conditions: Ba/F3-EGFR D770-N771insSVD cells
T2 construct: EC50 Ba/F3-EGFR D770-N771insSVD; other: Ba/F3-EGFR D770-N771insSVD cells, 72 h, CCK-8
How it was run: as §1

Ba/F3 stable cells [3] = molecular target: T3, Ba/F3 stable cells (Homo sapiens, UniProt P00533, DUP771-773, cells depend on it); conditions: Ba/F3-EGFR H773-V774insNPH cells
T3 construct: EC50 Ba/F3-EGFR H773-V774insNPH; other: Ba/F3-EGFR H773-V774insNPH cells, 72 h, CCK-8
How it was run: as §1

Ba/F3 stable cells [4] = molecular target: T4, Ba/F3 stable cells (Homo sapiens, UniProt P00533, INS763FQEA, cells depend on it); conditions: Ba/F3-EGFR A763-Y764insFQEA cells
T4 construct: EC50 Ba/F3-EGFR A763-Y764insFQEA; other: Ba/F3-EGFR A763-Y764insFQEA cells, 72 h, CCK-8
How it was run: as §1

Ba/F3 stable cells [5] = molecular target: T5, Ba/F3 stable cells (Homo sapiens, UniProt P00533, T790M/L858R, cells depend on it); conditions: Ba/F3-EGFR L858R-T790M cells
T5 construct: EC50 Ba/F3-EGFR L858R-T790M; other: Ba/F3-EGFR L858R-T790M cells, 72 h, CCK-8
How it was run: as §1

Ba/F3 stable cells [6] = molecular target: T6, Ba/F3 stable cells (Homo sapiens, UniProt P04626, DUP772-775, cells depend on it); conditions: Ba/F3-HER2 A775-G776insYVMA cells
T6 construct: EC50 Ba/F3-HER2 A775-G776insYVMA; other: Ba/F3-HER2 A775-G776insYVMA cells, 72 h, CCK-8
How it was run: as §1

T3 sequence (P00533 with tags, fused parts or gaps DUP771-773): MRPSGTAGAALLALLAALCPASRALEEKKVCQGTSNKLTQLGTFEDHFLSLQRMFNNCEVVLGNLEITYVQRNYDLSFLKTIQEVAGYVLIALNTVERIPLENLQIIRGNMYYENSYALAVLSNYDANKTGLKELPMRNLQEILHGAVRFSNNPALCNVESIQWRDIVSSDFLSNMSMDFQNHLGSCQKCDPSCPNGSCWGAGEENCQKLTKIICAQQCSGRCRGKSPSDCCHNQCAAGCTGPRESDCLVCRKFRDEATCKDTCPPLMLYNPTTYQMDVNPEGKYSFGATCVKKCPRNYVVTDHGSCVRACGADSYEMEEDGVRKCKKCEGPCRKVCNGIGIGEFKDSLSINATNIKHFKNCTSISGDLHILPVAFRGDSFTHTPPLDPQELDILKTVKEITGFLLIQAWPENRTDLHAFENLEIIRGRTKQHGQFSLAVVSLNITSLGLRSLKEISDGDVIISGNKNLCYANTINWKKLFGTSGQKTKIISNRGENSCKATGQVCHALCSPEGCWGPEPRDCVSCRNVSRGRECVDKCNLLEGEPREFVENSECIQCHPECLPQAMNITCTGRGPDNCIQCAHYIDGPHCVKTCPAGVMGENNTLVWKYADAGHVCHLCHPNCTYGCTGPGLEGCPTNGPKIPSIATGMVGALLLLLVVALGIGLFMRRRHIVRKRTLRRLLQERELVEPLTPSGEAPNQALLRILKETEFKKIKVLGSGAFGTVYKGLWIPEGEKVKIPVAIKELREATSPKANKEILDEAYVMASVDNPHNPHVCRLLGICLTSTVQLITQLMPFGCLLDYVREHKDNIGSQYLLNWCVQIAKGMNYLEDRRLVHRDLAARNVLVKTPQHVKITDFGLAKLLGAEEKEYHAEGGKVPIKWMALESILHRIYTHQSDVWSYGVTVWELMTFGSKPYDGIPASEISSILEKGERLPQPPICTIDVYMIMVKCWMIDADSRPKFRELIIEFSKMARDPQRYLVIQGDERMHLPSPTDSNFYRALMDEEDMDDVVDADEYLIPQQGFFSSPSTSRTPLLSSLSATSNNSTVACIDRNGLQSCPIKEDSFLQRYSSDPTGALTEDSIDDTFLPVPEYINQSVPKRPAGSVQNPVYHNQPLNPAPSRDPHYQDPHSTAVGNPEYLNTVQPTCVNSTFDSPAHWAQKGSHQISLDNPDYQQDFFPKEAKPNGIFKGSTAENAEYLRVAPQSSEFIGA
T5 sequence (P00533 whole entry T790M/L858R): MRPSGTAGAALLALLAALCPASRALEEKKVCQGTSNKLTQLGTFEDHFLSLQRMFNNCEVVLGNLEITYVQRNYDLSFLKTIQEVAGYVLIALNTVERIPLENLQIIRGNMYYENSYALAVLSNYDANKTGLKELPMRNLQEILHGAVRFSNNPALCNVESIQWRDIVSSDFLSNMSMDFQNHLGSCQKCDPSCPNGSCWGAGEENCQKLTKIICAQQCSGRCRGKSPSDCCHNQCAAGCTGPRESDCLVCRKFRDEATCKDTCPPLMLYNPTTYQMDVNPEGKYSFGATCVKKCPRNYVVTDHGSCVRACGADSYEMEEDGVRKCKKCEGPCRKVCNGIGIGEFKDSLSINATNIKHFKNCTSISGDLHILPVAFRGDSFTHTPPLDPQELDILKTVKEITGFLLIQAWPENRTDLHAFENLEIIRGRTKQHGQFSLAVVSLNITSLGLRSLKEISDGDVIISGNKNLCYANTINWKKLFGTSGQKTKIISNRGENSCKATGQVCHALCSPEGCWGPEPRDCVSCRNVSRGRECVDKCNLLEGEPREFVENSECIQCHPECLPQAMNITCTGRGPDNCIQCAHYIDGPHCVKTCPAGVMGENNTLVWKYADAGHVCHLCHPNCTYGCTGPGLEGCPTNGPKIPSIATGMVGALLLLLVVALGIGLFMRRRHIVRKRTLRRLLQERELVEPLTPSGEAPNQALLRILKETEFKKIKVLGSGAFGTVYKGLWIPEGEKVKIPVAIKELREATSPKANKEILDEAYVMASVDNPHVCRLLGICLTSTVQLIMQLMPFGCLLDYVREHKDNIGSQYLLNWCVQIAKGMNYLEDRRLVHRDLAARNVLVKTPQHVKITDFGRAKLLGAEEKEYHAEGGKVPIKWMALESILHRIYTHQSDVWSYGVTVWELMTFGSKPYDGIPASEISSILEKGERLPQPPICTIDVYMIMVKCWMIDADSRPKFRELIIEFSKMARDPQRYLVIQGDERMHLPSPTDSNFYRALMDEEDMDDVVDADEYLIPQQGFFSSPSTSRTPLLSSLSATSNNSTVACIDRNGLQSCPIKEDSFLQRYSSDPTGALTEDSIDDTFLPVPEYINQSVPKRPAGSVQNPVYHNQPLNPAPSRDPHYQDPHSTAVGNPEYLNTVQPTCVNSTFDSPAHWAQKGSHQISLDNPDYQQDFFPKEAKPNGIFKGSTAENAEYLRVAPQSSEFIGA
T6 sequence (P04626 with tags, fused parts or gaps DUP772-775): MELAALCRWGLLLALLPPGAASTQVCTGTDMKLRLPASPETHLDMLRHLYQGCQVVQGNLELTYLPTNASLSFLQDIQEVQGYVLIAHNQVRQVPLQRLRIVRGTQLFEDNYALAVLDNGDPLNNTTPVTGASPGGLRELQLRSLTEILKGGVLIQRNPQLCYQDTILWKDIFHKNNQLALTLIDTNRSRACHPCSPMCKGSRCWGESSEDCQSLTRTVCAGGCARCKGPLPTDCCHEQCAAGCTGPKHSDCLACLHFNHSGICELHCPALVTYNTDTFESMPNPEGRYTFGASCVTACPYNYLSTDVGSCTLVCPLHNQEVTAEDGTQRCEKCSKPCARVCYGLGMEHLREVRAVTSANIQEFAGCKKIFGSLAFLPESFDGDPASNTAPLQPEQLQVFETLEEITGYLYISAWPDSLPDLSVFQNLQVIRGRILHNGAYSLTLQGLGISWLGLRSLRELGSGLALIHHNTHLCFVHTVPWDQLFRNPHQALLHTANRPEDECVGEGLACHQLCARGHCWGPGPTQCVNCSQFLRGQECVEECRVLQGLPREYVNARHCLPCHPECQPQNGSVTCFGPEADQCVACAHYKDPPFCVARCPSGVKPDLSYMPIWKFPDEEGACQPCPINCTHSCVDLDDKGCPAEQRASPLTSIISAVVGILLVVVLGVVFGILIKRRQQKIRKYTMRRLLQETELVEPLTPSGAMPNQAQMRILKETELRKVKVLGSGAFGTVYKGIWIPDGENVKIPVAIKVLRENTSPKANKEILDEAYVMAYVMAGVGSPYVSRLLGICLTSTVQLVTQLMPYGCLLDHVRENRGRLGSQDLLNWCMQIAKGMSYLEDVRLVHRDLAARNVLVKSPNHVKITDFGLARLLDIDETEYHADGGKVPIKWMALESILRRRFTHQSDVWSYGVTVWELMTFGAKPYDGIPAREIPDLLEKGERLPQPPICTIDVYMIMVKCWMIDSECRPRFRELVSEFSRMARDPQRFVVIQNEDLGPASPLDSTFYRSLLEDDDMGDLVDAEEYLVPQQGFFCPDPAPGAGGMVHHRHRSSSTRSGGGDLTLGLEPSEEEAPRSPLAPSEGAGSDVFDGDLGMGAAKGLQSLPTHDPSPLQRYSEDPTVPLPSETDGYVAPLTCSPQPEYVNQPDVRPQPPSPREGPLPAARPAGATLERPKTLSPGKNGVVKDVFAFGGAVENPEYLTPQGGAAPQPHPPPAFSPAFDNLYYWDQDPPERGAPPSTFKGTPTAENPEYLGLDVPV
T4 sequence (P00533 with tags, fused parts or gaps INS763FQEA): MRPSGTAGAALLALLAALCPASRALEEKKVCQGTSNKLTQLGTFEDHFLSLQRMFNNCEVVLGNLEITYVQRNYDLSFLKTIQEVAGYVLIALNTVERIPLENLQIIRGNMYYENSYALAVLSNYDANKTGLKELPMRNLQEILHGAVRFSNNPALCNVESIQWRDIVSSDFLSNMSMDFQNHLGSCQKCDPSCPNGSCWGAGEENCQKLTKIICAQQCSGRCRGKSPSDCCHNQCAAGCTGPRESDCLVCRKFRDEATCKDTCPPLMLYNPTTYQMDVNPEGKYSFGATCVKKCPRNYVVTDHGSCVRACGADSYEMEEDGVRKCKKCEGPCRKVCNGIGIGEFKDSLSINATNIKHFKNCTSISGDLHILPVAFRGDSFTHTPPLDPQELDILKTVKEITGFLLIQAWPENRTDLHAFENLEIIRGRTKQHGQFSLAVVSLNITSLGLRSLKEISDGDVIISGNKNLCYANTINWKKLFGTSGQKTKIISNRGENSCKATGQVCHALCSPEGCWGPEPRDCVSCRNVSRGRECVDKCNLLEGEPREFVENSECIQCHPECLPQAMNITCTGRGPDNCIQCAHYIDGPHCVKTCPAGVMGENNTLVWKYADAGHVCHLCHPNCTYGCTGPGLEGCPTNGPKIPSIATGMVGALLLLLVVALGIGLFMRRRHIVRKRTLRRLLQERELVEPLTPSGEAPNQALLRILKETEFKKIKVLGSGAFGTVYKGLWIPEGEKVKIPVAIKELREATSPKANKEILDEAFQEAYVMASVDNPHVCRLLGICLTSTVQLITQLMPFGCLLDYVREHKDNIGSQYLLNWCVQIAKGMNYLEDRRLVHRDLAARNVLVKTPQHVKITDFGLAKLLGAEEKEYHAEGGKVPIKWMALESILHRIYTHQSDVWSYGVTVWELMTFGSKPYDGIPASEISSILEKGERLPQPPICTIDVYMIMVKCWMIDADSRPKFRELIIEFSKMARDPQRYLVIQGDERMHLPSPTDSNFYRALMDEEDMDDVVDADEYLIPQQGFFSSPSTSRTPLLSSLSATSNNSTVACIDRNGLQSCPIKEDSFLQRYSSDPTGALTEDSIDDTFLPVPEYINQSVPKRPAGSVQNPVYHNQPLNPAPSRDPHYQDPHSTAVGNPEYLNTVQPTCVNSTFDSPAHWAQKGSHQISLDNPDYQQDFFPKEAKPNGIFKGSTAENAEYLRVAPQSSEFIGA

Row | SMILES | EC50 (Ba/F3 stable cells [1]) | EC50 (Ba/F3 stable cells [2]) | EC50 (Ba/F3 stable cells [3]) | EC50 (Ba/F3 stable cells [4]) | EC50 (Ba/F3 stable cells [5]) | EC50 (Ba/F3 stable cells [6])
1 | C=CC(=O)N1CCC(Oc2cc3c(C(=O)c4ccc(OC)cc4)ncnc3cc2OC)CC1 [Compound 174, 1-(4-((7-methoxy-4-(4-methoxybenzoyl)quinazolin-6-yl)oxy)piperidin-1-yl)prop-2-en-1-one] | > 1 µM | > 1 µM | > 1 µM | > 1 µM | > 1 µM | > 1 µM
2 | C=CC(=O)N1CCC(Oc2cc3c(C(=O)c4ccc(Cl)c(Cl)c4F)ncnc3cc2OC)CC1 [Compound 175, 1-(4-((4-(3,4-dichloro-2-fluorobenzoyl)-7-methoxyquinazolin-6-yl)oxy)piperidin-1-yl)prop-2-en-1-one] | ≤ 0.2 µM | 0.2 to 1 µM | ≤ 0.2 µM | ≤ 0.2 µM | 0.2 to 1 µM | 0.2 to 1 µM
3 | C=CC(=O)N1C2CCCC1CC(Oc1cc3c(Nc4ccc(Cl)c(Cl)c4F)ncnc3cc1OC)C2 (stereo not drawn) [Compound 176, 1-(3-((4-((3,4-dichloro-2-fluorophenyl)amino)-7-methoxyquinazolin-6-yl)oxy)-9-azabicyclo[3.3.1]nonan-9-yl)prop-2-en-1-one] | ≤ 0.2 µM | ≤ 0.2 µM | ≤ 0.2 µM | ≤ 0.2 µM | ≤ 0.2 µM | ≤ 0.2 µM
4 | C=CC(=O)N1C2CCC1CC(Oc1cc3c(Nc4ccc(Cl)c(Cl)c4F)ncnc3cc1OC)C2 (stereo not drawn) [Compound 177, 1-(3-((4-((3,4-dichloro-2-fluorophenyl)amino)-7-methoxyquinazolin-6-yl)oxy)-8-azabicyclo[3.2.1]octan-8-yl)prop-2-en-1-one] | ≤ 0.2 µM | ≤ 0.2 µM | ≤ 0.2 µM | ≤ 0.2 µM | ≤ 0.2 µM | ≤ 0.2 µM
5 | C=CC(=O)N1C2CCCC1CC(Oc1cc3c(Nc4cccc5ccccc45)ncnc3cc1OC)C2 (stereo not drawn) [Compound 178, 1-(3-((7-methoxy-4-(naphthalen-1-ylamino)quinazolin-6-yl)oxy)-9-azabicyclo[3.3.1]nonan-9-yl)prop-2-en-1-one] | ≤ 0.2 µM | 0.2 to 1 µM | ≤ 0.2 µM | ≤ 0.2 µM | ≤ 0.2 µM | ≤ 0.2 µM
6 | C=CC(=O)N1C2CCCC1CC(Oc1cc3c(Nc4ccc5ccccc5c4)ncnc3cc1OC)C2 (stereo not drawn) [Compound 179, 1-(3-((7-methoxy-4-(naphthalen-2-ylamino)quinazolin-6-yl)oxy)-9-azabicyclo[3.3.1]nonan-9-yl)prop-2-en-1-one] | ≤ 0.2 µM | 0.2 to 1 µM | ≤ 0.2 µM | ≤ 0.2 µM | ≤ 0.2 µM | ≤ 0.2 µM
7 | C=CC(=O)N1C2CCC1CC(Oc1cc3c(Nc4ccc5ccccc5c4)ncnc3cc1OC)C2 (stereo not drawn) [Compound 180, 1-(3-((7-methoxy-4-(naphthalen-2-ylamino)quinazolin-6-yl)oxy)-8-azabicyclo[3.2.1]octan-8-yl)prop-2-en-1-one] | ≤ 0.2 µM | ≤ 0.2 µM | ≤ 0.2 µM | ≤ 0.2 µM | ≤ 0.2 µM | ≤ 0.2 µM
8 | C=CC(=O)N1C2CCC1CC(Oc1cc3c(Nc4cccc5ccccc45)ncnc3cc1OC)C2 (stereo not drawn) [Compound 181, 1-(3-((7-methoxy-4-(naphthalen-1-ylamino)quinazolin-6-yl)oxy)-8-azabicyclo[3.2.1]octan-8-yl)prop-2-en-1-one] | ≤ 0.2 µM | ≤ 0.2 µM | ≤ 0.2 µM | ≤ 0.2 µM | ≤ 0.2 µM | ≤ 0.2 µM
9 | C=CC(=O)N1C2CCCC1CC(Oc1cc3c(Nc4cccc5c4CCC5)ncnc3cc1OC)C2 (stereo not drawn) [Compound 182, 1-(3-((4-((2,3-dihydro-1H-inden-4-yl)amino)-7-methoxyquinazolin-6-yl)oxy)-9-azabicyclo[3.3.1]nonan-9-yl)prop-2-en-1-one] | 0.2 to 1 µM | > 1 µM | 0.2 to 1 µM | ≤ 0.2 µM | 0.2 to 1 µM | > 1 µM
10 | C=CC(=O)N1C2CCC1CC(Oc1cc3c(Nc4cccc5c4CCC5)ncnc3cc1OC)C2 (stereo not drawn) [Compound 183, 1-(3-((4-((2,3-dihydro-1H-inden-4-yl)amino)-7-methoxyquinazolin-6-yl)oxy)-8-azabicyclo[3.2.1]octan-8-yl)prop-2-en-1-one] | ≤ 0.2 µM | 0.2 to 1 µM | ≤ 0.2 µM | ≤ 0.2 µM | ≤ 0.2 µM | 0.2 to 1 µM
11 | C=CC(=O)N1CCCC(c2ccc3ncnc(Nc4ccc(Cl)c(Cl)c4F)c3c2)C1 (stereo not drawn) [Compound 184, 1-(3-(4-((3,4-dichloro-2-fluorophenyl)amino)quinazolin-6-yl)piperidin-1-yl)prop-2-en-1-one] | ≤ 0.2 µM | 0.2 to 1 µM | 0.2 to 1 µM | ≤ 0.2 µM | > 1 µM | ≤ 0.2 µM
12 | C=CC(=O)N1CCCC(c2cc3c(Nc4ccc(Cl)c(Cl)c4F)ncnc3cc2OC)C1 (stereo not drawn) [Compound 185, 1-(3-(4-((3,4-dichloro-2-fluorophenyl)amino)-7-methoxyquinazolin-6-yl)piperidin-1-yl)prop-2-en-1-one] | ≤ 0.2 µM | 0.2 to 1 µM | ≤ 0.2 µM | ≤ 0.2 µM | ≤ 0.2 µM | 0.2 to 1 µM
13 | C=CC(=O)N1CCC=C(c2cc3c(Nc4ccc(Cl)c(Cl)c4F)ncnc3cc2OC)C1 [Compound 186, 1-(5-(4-((3,4-dichloro-2-fluorophenyl)amino)-7-methoxyquinazolin-6-yl)-3,6-dihydropyridin-1(2H)-yl)prop-2-en-1-one] | ≤ 0.2 µM | 0.2 to 1 µM | ≤ 0.2 µM | ≤ 0.2 µM | > 1 µM | 0.2 to 1 µM
14 | C=CC(=O)N1CCC=C(c2ccc3ncnc(Nc4ccc(Cl)c(Cl)c4F)c3c2)C1 [Compound 187, 1-(5-(4-((3,4-dichloro-2-fluorophenyl)amino)quinazolin-6-yl)-3,6-dihydropyridin-1(2H)-yl)prop-2-en-1-one] | ≤ 0.2 µM | 0.2 to 1 µM | 0.2 to 1 µM | ≤ 0.2 µM | 0.2 to 1 µM | 0.2 to 1 µM

Further lines, results first:

Row | EC50 (Ba/F3 stable cells [1]) | EC50 (Ba/F3 stable cells [2]) | EC50 (Ba/F3 stable cells [3]) | EC50 (Ba/F3 stable cells [4]) | EC50 (Ba/F3 stable cells [5]) | EC50 (Ba/F3 stable cells [6]) | SMILES
15 | ≤ 0.2 µM | 0.2 to 1 µM | ≤ 0.2 µM | ≤ 0.2 µM | ≤ 0.2 µM | 0.2 to 1 µM | C=CS(=O)(=O)N1CCCC(c2ccc3ncnc(Nc4ccc(Cl)c(Cl)c4F)c3c2)C1 (stereo not drawn) [Compound 188, N-(3,4-dichloro-2-fluorophenyl)-6-(1-(vinylsulfonyl)piperidin-3-yl)quinazolin-4-amine]
16 | ≤ 0.2 µM | ≤ 0.2 µM | ≤ 0.2 µM | ≤ 0.2 µM | ≤ 0.2 µM | 0.2 to 1 µM | C=CS(=O)(=O)N1CCC=C(c2ccc3ncnc(Nc4ccc(Cl)c(Cl)c4F)c3c2)C1 [Compound 190, N-(3,4-dichloro-2-fluorophenyl)-6-(1-(vinylsulfonyl)-1,2,5,6-tetrahydropyridin-3-yl)quinazolin-4-amine]
17 | ≤ 0.2 µM | ≤ 0.2 µM | ≤ 0.2 µM | ≤ 0.2 µM | ≤ 0.2 µM | > 1 µM | C=CS(=O)(=O)NC1CC(Oc2cc3c(Nc4ccc(Cl)c(Cl)c4F)ncnc3cc2OC)C1 (stereo not drawn) [Compound 191, N-(3-((4-((3,4-dichloro-2-fluorophenyl)amino)-7-methoxyquinazolin-6-yl)oxy)cyclobutyl)ethenesulfonamide]
18 | ≤ 0.2 µM | > 1 µM | ≤ 0.2 µM | ≤ 0.2 µM | ≤ 0.2 µM | 0.2 to 1 µM | C=CS(=O)(=O)N1CCC(Oc2cc3c(Nc4ccc(Cl)c(Cl)c4F)ncnc3cc2OC)CC1 [Compound 192, N-(3,4-dichloro-2-fluorophenyl)-7-methoxy-6-((1-(vinylsulfonyl)piperidin-4-yl)oxy)quinazolin-4-amine]
19 | 0.2 to 1 µM | > 1 µM | 0.2 to 1 µM | ≤ 0.2 µM | 0.2 to 1 µM | > 1 µM | C=CS(=O)(=O)N1CCC(Oc2cc3c(C(=O)c4ccc(Cl)c(Cl)c4F)ncnc3cc2OC)CC1 [Compound 193, (3,4-dichloro-2-fluorophenyl)(7-methoxy-6-((1-(vinylsulfonyl)piperidin-4-yl)oxy)quinazolin-4-yl)methanone]
20 | ≤ 0.2 µM | > 1 µM | 0.2 to 1 µM | ≤ 0.2 µM | > 1 µM | > 1 µM | COc1cc2ncnc(Nc3ccc(Cl)c(Cl)c3F)c2cc1OC1CCN(C#N)CC1 [Compound 194, 4-((4-((3,4-dichloro-2-fluorophenyl)amino)-7-methoxyquinazolin-6-yl)oxy)piperidine-1-carbonitrile]

From patent US20250243171A1, “QUINAZOLINE COMPOUNDS FOR TREATMENT OF DISEASE” (Arthrosi Therapeutics, Inc., priority 2021, published 2025)
